How the values were obtained:
Assay in all cases: KINOMEscan Max
Format in all cases: binding
PAK7 = molecular target: T1, PAK7 (Homo sapiens, UniProt Q9P286)
T1 construct: DNA tag (qPCR read-out)
Procedure, shortened: (§1)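 Compound displacement of DNA-tagged kinase from immobilized active-site ligand; qPCR of tag as read-out.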

CDK4-cyclinD1 = molecular target: T2, CDK4-cyclinD1 (Homo sapiens, UniProt P11802)
T2 construct: DNA tag (qPCR label); purchased Ambit Kinomescan (contract screening)
Procedure, shortened: as §1

NEK4 = NEK4 (Homo sapiens, UniProt P51957)
Procedure, shortened: as §1

ABL2 = ABL2 (Homo sapiens, UniProt P42684)
Procedure, shortened: as §1

MLK3 = MLK3 (Homo sapiens, UniProt Q16584); details: 1 μM
Procedure, shortened: as §1

KIT(D816H) = molecular target: T3, KIT(D816H) (Homo sapiens, UniProt P10721, D816H)
T3 construct: purchased Ambit Kinomescan (contract screening)
T3 sequence (P10721 26-976 D816H): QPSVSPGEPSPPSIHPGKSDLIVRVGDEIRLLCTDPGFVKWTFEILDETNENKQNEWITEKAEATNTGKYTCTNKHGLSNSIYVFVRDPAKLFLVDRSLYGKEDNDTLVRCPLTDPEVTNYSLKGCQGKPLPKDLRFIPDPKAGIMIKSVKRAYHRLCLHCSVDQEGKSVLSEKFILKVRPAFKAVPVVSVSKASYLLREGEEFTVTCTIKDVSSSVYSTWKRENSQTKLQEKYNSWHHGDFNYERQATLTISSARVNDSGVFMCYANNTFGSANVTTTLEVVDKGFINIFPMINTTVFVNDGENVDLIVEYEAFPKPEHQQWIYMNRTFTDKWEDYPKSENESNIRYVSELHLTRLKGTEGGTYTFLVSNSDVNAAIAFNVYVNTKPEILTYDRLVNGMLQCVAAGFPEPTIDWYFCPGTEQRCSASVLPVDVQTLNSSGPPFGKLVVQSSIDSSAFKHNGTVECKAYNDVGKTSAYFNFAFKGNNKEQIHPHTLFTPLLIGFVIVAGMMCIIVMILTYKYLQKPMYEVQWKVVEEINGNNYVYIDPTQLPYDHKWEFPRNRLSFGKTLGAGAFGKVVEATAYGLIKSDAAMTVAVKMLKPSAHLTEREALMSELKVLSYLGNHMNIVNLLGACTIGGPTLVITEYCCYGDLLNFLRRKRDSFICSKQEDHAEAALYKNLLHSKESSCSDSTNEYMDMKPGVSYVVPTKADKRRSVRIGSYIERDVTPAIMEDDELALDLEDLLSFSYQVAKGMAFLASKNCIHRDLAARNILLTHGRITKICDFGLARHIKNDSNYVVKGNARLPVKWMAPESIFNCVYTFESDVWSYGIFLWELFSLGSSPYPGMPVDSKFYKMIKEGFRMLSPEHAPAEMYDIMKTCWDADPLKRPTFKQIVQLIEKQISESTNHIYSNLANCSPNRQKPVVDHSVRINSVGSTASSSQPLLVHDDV
Procedure, shortened: as §1

DAPK2 = molecular target: T4, DAPK2 (Homo sapiens, UniProt Q9UIK4)
T4 construct: DNA tag (qPCR read-out)
T4 sequence (Q9UIK4 whole entry): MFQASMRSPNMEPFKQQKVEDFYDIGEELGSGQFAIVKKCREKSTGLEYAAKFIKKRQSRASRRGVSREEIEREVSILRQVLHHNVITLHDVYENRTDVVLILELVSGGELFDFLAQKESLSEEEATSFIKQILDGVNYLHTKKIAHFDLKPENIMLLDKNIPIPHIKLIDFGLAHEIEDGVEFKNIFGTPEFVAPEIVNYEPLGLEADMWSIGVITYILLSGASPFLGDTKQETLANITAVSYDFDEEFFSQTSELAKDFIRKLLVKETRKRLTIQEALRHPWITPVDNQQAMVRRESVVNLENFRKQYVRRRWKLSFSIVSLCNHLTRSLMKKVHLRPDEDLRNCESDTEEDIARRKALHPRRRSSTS
Procedure, shortened: as §1

GCN2(Kin.Dom.S808G) = molecular target: T5, GCN2(Kin.Dom.S808G) (Homo sapiens, UniProt Q9P2K8, S808G)
T5 construct: GCN2(Kin.Dom.S808G)
Procedure, shortened: as §1

TIE1 = molecular target: T6, TIE1 (Homo sapiens, UniProt P35590)
T6 construct: purchased Ambit Kinomescan (contract screening service)
Procedure, shortened: as §1

MAP4K2 = MAP4K2 (Homo sapiens, UniProt Q12851)
Sequence of MAP4K2 (Q12851 whole entry): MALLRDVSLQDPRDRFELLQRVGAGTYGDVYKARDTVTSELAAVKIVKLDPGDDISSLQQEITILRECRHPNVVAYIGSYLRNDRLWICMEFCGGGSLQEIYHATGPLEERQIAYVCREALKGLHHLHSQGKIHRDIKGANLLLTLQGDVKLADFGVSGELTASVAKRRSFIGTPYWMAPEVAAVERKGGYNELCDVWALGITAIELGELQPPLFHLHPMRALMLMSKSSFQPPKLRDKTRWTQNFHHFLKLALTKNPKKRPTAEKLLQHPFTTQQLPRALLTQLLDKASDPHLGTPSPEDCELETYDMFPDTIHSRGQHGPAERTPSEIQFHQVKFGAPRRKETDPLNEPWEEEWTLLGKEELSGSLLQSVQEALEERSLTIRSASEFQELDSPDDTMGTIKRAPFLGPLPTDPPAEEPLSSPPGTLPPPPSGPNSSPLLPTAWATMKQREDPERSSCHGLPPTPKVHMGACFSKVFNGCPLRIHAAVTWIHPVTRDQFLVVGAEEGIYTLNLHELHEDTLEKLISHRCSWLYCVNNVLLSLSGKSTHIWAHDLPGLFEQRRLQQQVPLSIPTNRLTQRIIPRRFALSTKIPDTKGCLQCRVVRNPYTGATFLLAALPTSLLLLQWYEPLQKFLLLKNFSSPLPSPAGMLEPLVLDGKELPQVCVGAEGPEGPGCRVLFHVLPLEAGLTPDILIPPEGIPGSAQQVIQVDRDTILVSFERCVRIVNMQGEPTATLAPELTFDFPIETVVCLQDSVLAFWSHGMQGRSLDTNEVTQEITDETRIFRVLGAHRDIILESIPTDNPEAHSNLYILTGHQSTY
Procedure, shortened: as §1

CAMKK2 = molecular target: T7, CAMKK2 (Homo sapiens, UniProt Q96RR4)
T7 construct: DNA tag (qPCR label); purchased Ambit Kinomescan (contract screening)
Procedure, shortened: as §1

CDK8 = molecular target: T8, CDK8 (Homo sapiens, UniProt P49336); details: 1 μM
T8 construct: purchased Ambit (KINOMEscan Max service)
T8 sequence (P49336 whole entry): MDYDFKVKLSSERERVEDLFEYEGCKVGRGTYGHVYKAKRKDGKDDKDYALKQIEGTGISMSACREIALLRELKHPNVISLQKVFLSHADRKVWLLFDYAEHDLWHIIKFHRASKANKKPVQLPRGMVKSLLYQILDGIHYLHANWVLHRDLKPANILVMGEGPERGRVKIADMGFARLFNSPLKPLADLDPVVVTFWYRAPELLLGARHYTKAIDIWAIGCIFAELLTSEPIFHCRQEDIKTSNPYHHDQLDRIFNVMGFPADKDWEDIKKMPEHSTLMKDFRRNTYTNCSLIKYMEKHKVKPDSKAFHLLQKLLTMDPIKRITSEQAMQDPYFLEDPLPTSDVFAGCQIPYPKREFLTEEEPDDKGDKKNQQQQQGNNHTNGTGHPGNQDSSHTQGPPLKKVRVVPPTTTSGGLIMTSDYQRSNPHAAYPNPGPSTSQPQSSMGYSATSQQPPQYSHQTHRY
Procedure, shortened: as §1

[1] = molecular target: T9, JAK3(JH1domain-catalytic) (Homo sapiens, UniProt P52333)
T9 construct: JAK3(JH1domain-catalytic); purchased Ambit Kinomescan (contract panel)
Procedure, shortened: as §1

[2] = molecular target: T10, JAK1(JH1domain-catalytic) (Homo sapiens, UniProt P23458); details: 1 μM
T10 construct: JAK1(JH1domain-catalytic); purchased Ambit (KINOMEscan Max service)
Procedure, shortened: as §1

KIT(D816V) = molecular target: T11, KIT(D816V) (Homo sapiens, UniProt P10721, D816V)
T11 construct: purchased Ambit (KINOMEscan Max service)
T11 sequence (P10721 26-976 D816V): as the sequence (P10721 26-976 D816H) above, with H791V counted along it
Procedure, shortened: as §1

PKAC-beta = molecular target: T12, PKAC-beta (Homo sapiens, UniProt P22694)
T12 construct: purchased Ambit (KINOMEscan Max service)
Procedure, shortened: as §1

[3] = molecular target: T13, RSK1(Kin.Dom.1-N-terminal) (Homo sapiens, UniProt Q15418)
T13 construct: RSK1(Kin.Dom.1-N-terminal); DNA tag (qPCR read-out)
T13 sequence (Q15418 62-321 limits assumed): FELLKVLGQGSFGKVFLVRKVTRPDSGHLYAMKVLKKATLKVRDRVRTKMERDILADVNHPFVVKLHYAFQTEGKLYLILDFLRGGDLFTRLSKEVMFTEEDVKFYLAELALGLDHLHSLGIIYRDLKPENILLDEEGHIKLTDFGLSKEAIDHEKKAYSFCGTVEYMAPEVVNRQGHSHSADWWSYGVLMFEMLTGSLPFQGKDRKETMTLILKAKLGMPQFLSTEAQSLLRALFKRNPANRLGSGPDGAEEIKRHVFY
Procedure, shortened: as §1

FES = molecular target: T14, FES (Homo sapiens, UniProt P07332)
T14 construct: purchased Ambit Kinomescan (contract panel, KINOMEscan Max)
Procedure, shortened: as §1

p38-beta = p38-beta (Homo sapiens, UniProt Q15759)
Procedure, shortened: as §1

TAOK1 = molecular target: T15, TAOK1 (Homo sapiens, UniProt Q7L7X3)
T15 construct: DNA tag (qPCR read-out)
Procedure, shortened: as §1

ROCK1 = molecular target: T16, ROCK1 (Homo sapiens, UniProt Q13464)
T16 construct: DNA tag (qPCR read-out)
T16 sequence (Q13464 whole entry): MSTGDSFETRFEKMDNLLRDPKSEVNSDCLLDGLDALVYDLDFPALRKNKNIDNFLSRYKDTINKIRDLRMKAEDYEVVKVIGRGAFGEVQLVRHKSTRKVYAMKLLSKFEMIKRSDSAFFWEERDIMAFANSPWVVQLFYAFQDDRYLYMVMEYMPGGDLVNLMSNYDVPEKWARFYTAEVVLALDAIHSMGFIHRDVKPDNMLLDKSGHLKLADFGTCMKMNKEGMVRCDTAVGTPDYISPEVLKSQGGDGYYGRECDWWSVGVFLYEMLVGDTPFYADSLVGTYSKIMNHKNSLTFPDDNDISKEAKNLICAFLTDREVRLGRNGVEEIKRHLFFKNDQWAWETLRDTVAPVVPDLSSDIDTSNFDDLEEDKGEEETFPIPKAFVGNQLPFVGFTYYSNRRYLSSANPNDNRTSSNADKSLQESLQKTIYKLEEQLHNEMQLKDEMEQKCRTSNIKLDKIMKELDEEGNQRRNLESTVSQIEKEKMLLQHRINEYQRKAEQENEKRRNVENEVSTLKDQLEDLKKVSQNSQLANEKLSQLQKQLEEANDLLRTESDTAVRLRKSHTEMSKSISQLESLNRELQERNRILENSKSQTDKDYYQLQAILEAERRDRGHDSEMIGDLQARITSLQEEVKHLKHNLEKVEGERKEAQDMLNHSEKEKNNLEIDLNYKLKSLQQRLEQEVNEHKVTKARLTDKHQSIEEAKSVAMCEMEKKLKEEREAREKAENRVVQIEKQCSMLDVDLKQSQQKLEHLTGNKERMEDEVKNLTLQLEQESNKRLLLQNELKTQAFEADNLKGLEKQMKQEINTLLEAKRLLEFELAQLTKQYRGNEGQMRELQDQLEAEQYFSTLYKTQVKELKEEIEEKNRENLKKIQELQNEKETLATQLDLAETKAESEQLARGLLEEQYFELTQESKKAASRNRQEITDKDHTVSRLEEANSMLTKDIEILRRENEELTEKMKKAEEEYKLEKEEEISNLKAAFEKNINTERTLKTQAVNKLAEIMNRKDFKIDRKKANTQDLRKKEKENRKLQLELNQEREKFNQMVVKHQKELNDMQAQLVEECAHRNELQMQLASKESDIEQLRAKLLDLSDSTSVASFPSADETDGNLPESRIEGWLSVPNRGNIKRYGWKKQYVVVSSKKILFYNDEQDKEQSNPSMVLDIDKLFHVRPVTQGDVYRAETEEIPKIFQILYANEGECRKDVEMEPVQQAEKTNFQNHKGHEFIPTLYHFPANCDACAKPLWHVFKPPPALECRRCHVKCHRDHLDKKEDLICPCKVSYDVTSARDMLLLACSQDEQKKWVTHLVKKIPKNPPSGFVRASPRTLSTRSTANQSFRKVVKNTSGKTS
Procedure, shortened: as §1

CDC2L2 = molecular target: T17, CDC2L2 (Homo sapiens, UniProt Q9UQ88)
T17 construct: purchased Ambit (KINOMEscan Max service)
Procedure, shortened: as §1

DAPK3 = DAPK3 (Homo sapiens, UniProt O43293)
Procedure, shortened: as §1

JNK2 = molecular target: T18, JNK2 (Homo sapiens, UniProt P45984); details: 1 μM
T18 construct: purchased Ambit Kinomescan (contract panel)
Procedure, shortened: as §1

YES = molecular target: T19, YES (Homo sapiens, UniProt P07947)
T19 construct: purchased Ambit Kinomescan (contract screening service)
T19 sequence (P07947 whole entry): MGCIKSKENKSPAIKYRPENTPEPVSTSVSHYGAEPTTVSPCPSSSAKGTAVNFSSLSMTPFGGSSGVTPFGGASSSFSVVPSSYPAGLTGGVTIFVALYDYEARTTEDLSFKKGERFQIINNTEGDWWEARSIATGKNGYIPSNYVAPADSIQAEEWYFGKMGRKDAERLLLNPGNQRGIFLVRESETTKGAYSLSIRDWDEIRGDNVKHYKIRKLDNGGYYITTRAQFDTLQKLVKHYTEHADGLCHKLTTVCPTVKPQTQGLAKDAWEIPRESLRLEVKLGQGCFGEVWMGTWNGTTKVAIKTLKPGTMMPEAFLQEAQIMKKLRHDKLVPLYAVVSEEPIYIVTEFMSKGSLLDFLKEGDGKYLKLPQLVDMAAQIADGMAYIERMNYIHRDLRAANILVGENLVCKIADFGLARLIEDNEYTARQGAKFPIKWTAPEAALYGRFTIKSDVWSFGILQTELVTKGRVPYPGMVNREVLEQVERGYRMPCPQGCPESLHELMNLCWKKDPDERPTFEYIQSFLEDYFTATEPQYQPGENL
Procedure, shortened: as §1

[4] = molecular target: T20, RPS6KA5(Kin.Dom.1-N-terminal) (Homo sapiens, UniProt O75582)
T20 construct: RPS6KA5(Kin.Dom.1-N-terminal); DNA tag (qPCR read-out)
Procedure, shortened: as §1

LATS1 = molecular target: T21, LATS1 (Homo sapiens, UniProt O95835)
T21 construct: purchased Ambit Kinomescan (contract panel)
Procedure, shortened: as §1

CSK = molecular target: T22, CSK (Homo sapiens, UniProt P41240); details: 1 μM
T22 construct: purchased Ambit (KINOMEscan Max panel service)
Procedure, shortened: as §1

PDGFRA = molecular target: T23, PDGFRA (Homo sapiens, UniProt P16234)
T23 construct: DNA tag (qPCR read-out)
Procedure, shortened: as §1

KIT(V559D.T670I) = molecular target: T24, KIT(V559D.T670I) (Homo sapiens, UniProt P10721, T670I/V559D)
T24 construct: purchased Ambit Kinomescan (contract panel)
T24 sequence (P10721 26-976 V559D/T670I): as the sequence (P10721 26-976 D816H) above, with V534D, T645I, H791D counted along it
Procedure, shortened: as §1

VRK2 = VRK2 (Homo sapiens, UniProt Q86Y07)
Procedure, shortened: as §1

MELK = molecular target: T25, MELK (Homo sapiens, UniProt Q14680)
T25 construct: purchased Ambit (KINOMEscan Max service)
Procedure, shortened: as §1

In the case of NCCCNc1nc2c(Br)c(Br)c(Br)c(Br)c2[nH]1 [Compound 11, N-(3-aminopropyl)-4,5,6,7-tetrabromo-1H-benzo[d]imidazol-2-amine], the remaining binding at 1 µM (PAK7) is reported as 90%, the remaining binding at 1 µM (CDK4-cyclinD1) is reported as 100% and the remaining binding at 1 µM (NEK4) is reported as 98%. The remaining binding at 1 µM (ABL2) was 100%, the “% binding” value (MLK3) was 95% and the remaining binding at 1 µM (KIT(D816H)) was 97%. It also gave a remaining binding at 1 µM (DAPK2) of 90%, a remaining binding at 1 µM (GCN2(Kin.Dom.S808G)) of 95% and a remaining binding at 1 µM (TIE1) of 100%. The remaining binding at 1 µM (MAP4K2) was 78%, the remaining binding at 1 µM (CAMKK2) was 100% and the “% binding” value (CDK8) was 68%. For the same compound, the remaining binding at 1 µM [1] was 100%, the “% binding” value [2] was 86% and the remaining binding at 1 µM (KIT(D816V)) was 60%. The remaining binding at 1 µM (PKAC-beta) was 84%, the remaining binding at 1 µM [3] was 100% and the remaining binding at 1 µM (FES) was 100%. The remaining binding at 1 µM (p38-beta) was 95%, the remaining binding at 1 µM (TAOK1) was 100% and the remaining binding at 1 µM (ROCK1) was 28%. For the same compound, the remaining binding at 1 µM (CDC2L2) was 82%, the remaining binding at 1 µM (DAPK3) was 73% and the “% binding” value (JNK2) was 100%. For the same compound, the remaining binding at 1 µM (YES) was 100%, the remaining binding at 1 µM [4] was 100% and the remaining binding at 1 µM (LATS1) was 100%. For the same compound, the “% binding” value (CSK) was 100%, the remaining binding at 1 µM (PDGFRA) was 100% and the remaining binding at 1 µM (KIT(V559D.T670I)) was 100%. The remaining binding at 1 µM (VRK2) was 79% and the remaining binding at 1 µM (MELK) was 82%.
